Assays:
Assay type in all cases: in vivo
Scirpus juncoides = experiment: Test Example 1: herbicidal activity, application before weed generation in submerged conditions (symbol B); conditions: application herbicide amount 320 g/ha
Method in brief: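 Steps: alluvial soil flooded to 4 cm; weed seeds sown together; rice seedlings (2.5 leaf) transplanted; diluted emulsion applied to water surface the same day as sowing; plants grown at 25–30 °C in greenhouse; herbicidal effect rated on a 0–5 scale at 3 weeks.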

Setaria viridis [1] = experiment: Test Example 4: herbicidal effect by soil treatment (symbol G); conditions: application herbicide amount 320 g/ha
Method in brief: (§1)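 Seeds were sown in sterilized diluvial soil, covered with about 1.5 cm of soil, and the soil surface was sprayed with a water-diluted emulsion of the compound at a predetermined rate. Plants grew in a greenhouse at 25° C. to 30° C.; effects were scored visually 3 weeks after application.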

Avena fatua = experiment: Test Example 4: herbicidal effect by soil treatment (symbol I); conditions: application herbicide amount 320 g/ha
Method in brief: as §1

Alopecurus myosuroides [2] = experiment: Test Example 4: herbicidal effect by soil treatment (symbol J); conditions: application herbicide amount 320 g/ha
Method in brief: as §1

Lolium multiflorum Lam. = experiment: Test Example 4: herbicidal effect by soil treatment (symbol K); conditions: application herbicide amount 320 g/ha
Method in brief: as §1

Abutilon theophrasti = experiment: Test Example 4: herbicidal effect by soil treatment (symbol M); conditions: application herbicide amount 320 g/ha
Method in brief: as §1

Amaranthus retroflexus [3] = experiment: Test Example 4: herbicidal effect by soil treatment (symbol N); conditions: application herbicide amount 320 g/ha
Method in brief: as §1

Galium spurium [4] = experiment: Test Example 4: herbicidal effect by soil treatment (symbol Q); conditions: application herbicide amount 320 g/ha
Method in brief: as §1

corn = experiment: Test Example 4: effect on crop by soil treatment (symbol c); conditions: application herbicide amount 320 g/ha
Method in brief: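 Sterilized diluvial soil, spot sowing, ~1.5 cm soil cover; greenhouse 25–30° C.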

soybean [5] = experiment: Test Example 4: effect on crop by soil treatment (symbol d); conditions: application herbicide amount 320 g/ha
Method in brief: (§2)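 Crop seed is sown in spots together with several weed species in a box of sterilized diluvial soil. It is covered by about 1.5 cm of soil and kept in a greenhouse held between 25° C. and 30° C.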

rice = experiment: Test Example 4: effect on crop by soil treatment (symbol b); conditions: application herbicide amount 320 g/ha
Method in brief: as §2

wheat [6] = experiment: Test Example 4: effect on crop by soil treatment (symbol e); conditions: application herbicide amount 320 g/ha
Method in brief: as §2

Digitaria ciliaris = experiment: Test Example 5: herbicidal effect by foliage application, plastic box (symbol F); conditions: 320 g/ha, 3 weeks after application
Method in brief: (§3)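 Post-emergence spray; diluvial soil (sterilized), ~1.5 cm seed cover; greenhouse 25–30° C; 14-day-old plants; water-diluted emulsion at predetermined dose; visual score at 3 wk post-treatment.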

Setaria viridis [7] = experiment: Test Example 5: herbicidal effect by foliage application, plastic box (symbol G); conditions: 320 g/ha, 3 weeks after application
Method in brief: as §3

[8] = test system: Echinochloa crus-galli var. crus-galli; experiment: Test Example 5: herbicidal effect by foliage application, plastic box (symbol H); conditions: 320 g/ha, 3 weeks after application
Method in brief: as §3

Alopecurus myosuroides [9] = experiment: Test Example 5: herbicidal effect by foliage application, plastic box (symbol J); conditions: 320 g/ha, 3 weeks after application
Method in brief: as §3

Amaranthus retroflexus [10] = experiment: Test Example 5: herbicidal effect by foliage application, plastic box (symbol N); conditions: 320 g/ha, 3 weeks after application
Method in brief: as §3

Galium spurium [11] = experiment: Test Example 5: herbicidal effect by foliage application, plastic box (symbol Q); conditions: 320 g/ha, 3 weeks after application
Method in brief: as §3

soybean [12] = experiment: Test Example 5: effect on crop by foliage application, plastic box (symbol d); conditions: 320 g/ha, 3 weeks after application
Method in brief: (§4)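 In a plastic box 7 cm deep filled with sterilized diluvial soil, seeds of crops and weeds such as Digitaria ciliaris, Avena fatua and Amaranthus retroflexus are sown in spots and covered with about 1.5 cm of soil before greenhouse growth at 25–30° C.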

rice plant = experiment: Test Example 5: effect on crop by foliage application, plastic box (symbol b); conditions: 320 g/ha, 3 weeks after application
Method in brief: as §4

wheat [13] = experiment: Test Example 5: effect on crop by foliage application, plastic box (symbol e); conditions: 320 g/ha, 3 weeks after application
Method in brief: as §4

Stellaria media = experiment: Test Example 4: herbicidal effect by soil treatment (symbol P); conditions: application herbicide amount 320 g/ha
Method in brief: as §1

Compound	Herbicidal effect grade, B: Scirpus juncoides (Scirpus juncoides)	Herbicidal effect grade, G: Setaria viridis (Setaria viridis [1])	Herbicidal effect grade, I: Avena fatua (Avena fatua)	Herbicidal effect grade, J: Alopecurus myosuroides (Alopecurus myosuroides [2])	Herbicidal effect grade, K: Lolium multiflorum Lam. (Lolium multiflorum Lam.)	Herbicidal effect grade, M: Abutilon theophrasti (Abutilon theophrasti)	Herbicidal effect grade, N: Amaranthus retroflexus (Amaranthus retroflexus [3])	Herbicidal effect grade, P: Stellaria media (Stellaria media)	Herbicidal effect grade, Q: Galium spurium (Galium spurium [4])	Effect on crop grade, c: corn (corn)	Effect on crop grade, d: soybean (soybean [5])	Effect on crop grade, b: directly sowed rice plant (rice)	Effect on crop grade, e: wheat (wheat [6])	F: Digitaria ciliaris, herbicidal effect (criteria of Test Example 1) (Digitaria ciliaris)	G: Setaria viridis, herbicidal effect (criteria of Test Example 1) (Setaria viridis [7])	H: Echinochloa crus-galli var. crus-galli, herbicidal effect (criteria of Test Example 1) [8]	J: Alopecurus myosuroides, herbicidal effect (criteria of Test Example 1) (Alopecurus myosuroides [9])	N: Amaranthus retroflexus, herbicidal effect (criteria of Test Example 1) (Amaranthus retroflexus [10])	d: soybean, effect on crop (criteria of Test Example 1) (soybean [12])	b: directly sowed rice plant, effect on crop (criteria of Test Example 1) (rice plant)	also measured
CON=C(C)CC1CC(OC(=O)C2CC2)=C(c2c(C)cc(C)cc2C)C1=O (stereo not drawn) [1-015]	5 (Herbicidal ratio of 90% or more (almost completely withered))																				G (Setaria viridis) herbicidal effect grade (Setaria viridis [1]): 3 (Herbicidal ratio of 40% or higher and lower than 70%); I (Avena fatua) herbicidal effect grade (Avena fatua): 5 (Herbicidal ratio of 90% or more (almost completely withered)); J (Alopecurus myosuroides) herbicidal effect grade (Alopecurus myosuroides [2]): 5 (Herbicidal ratio of 90% or more (almost completely withered)); K (Lolium multiflorum Lam.) herbicidal effect grade (Lolium multiflorum Lam.): 5 (Herbicidal ratio of 90% or more (almost completely withered)); M (Abutilon theophrasti) herbicidal effect grade (Abutilon theophrasti): 5 (Herbicidal ratio of 90% or more (almost completely withered)); N (Amaranthus retroflexus) herbicidal effect grade (Amaranthus retroflexus [3]): 5 (Herbicidal ratio of 90% or more (almost completely withered)); Q (Galium spurium) herbicidal effect grade (Galium spurium [4]): 3 (Herbicidal ratio of 40% or higher and lower than 70%); c (corn) effect on crop grade (corn): 4 (Herbicidal ratio of 70% or higher and lower than 90%); d (soybean) effect on crop grade (soybean [5]): 3 (Herbicidal ratio of 40% or higher and lower than 70%); b (directly sowed rice plant) effect on crop grade (rice): 5 (Herbicidal ratio of 90% or more (almost completely withered)); e (wheat) effect on crop grade (wheat [6]): 3 (Herbicidal ratio of 40% or higher and lower than 70%); F: Digitaria ciliaris, herbicidal effect grade (Digitaria ciliaris): 5 (Herbicidal ratio of 90% or more (almost completely withered)); G: Setaria viridis, herbicidal effect grade (Setaria viridis [7]): 5 (Herbicidal ratio of 90% or more (almost completely withered)); H: Echinochloa crus-galli var. crus-galli, herbicidal effect grade [8]: 5 (Herbicidal ratio of 90% or more (almost completely withered)); J: Alopecurus myosuroides, herbicidal effect grade (Alopecurus myosuroides [9]): 5 (Herbicidal ratio of 90% or more (almost completely withered)); N: Amaranthus retroflexus, herbicidal effect grade (Amaranthus retroflexus [10]): 4 (Herbicidal ratio of 70% or higher and lower than 90%); Q: Galium spurium, herbicidal effect grade (Galium spurium [11]): 4 (Herbicidal ratio of 70% or higher and lower than 90%); d: soybean, effect on crop grade (soybean [12]): 5 (Herbicidal ratio of 90% or more (almost completely withered)); b: directly sowed rice plant, effect on crop grade (rice plant): 5 (Herbicidal ratio of 90% or more (almost completely withered)); e: wheat, effect on crop grade (wheat [13]): 5 (Herbicidal ratio of 90% or more (almost completely withered))
CC(=O)CC1CC(O)=C(c2c(C)cc(OCC(F)(F)F)cc2C)C1=O (stereo not drawn) [7-015]	1 (Herbicidal ratio of 5% or higher and lower than 20%)	5 (Herbicidal ratio of 90% or more (almost completely withered))	3 (Herbicidal ratio of 40% or higher and lower than 70%)	5 (Herbicidal ratio of 90% or more (almost completely withered))	5 (Herbicidal ratio of 90% or more (almost completely withered))	0 (Herbicidal ratio of 5% or lower (almost no effect))	0 (Herbicidal ratio of 5% or lower (almost no effect))	0 (Herbicidal ratio of 5% or lower (almost no effect))	0 (Herbicidal ratio of 5% or lower (almost no effect))	5 (Herbicidal ratio of 90% or more (almost completely withered))	0 (Herbicidal ratio of 5% or lower (almost no effect))	5 (Herbicidal ratio of 90% or more (almost completely withered))	4 (Herbicidal ratio of 70% or higher and lower than 90%)	5 (Herbicidal ratio of 90% or more (almost completely withered))	5 (Herbicidal ratio of 90% or more (almost completely withered))	5 (Herbicidal ratio of 90% or more (almost completely withered))	5 (Herbicidal ratio of 90% or more (almost completely withered))	0 (Herbicidal ratio of 5% or lower (almost no effect))	0 (Herbicidal ratio of 5% or lower (almost no effect))	5 (Herbicidal ratio of 90% or more (almost completely withered))	e: wheat, effect on crop (criteria of Test Example 1) (wheat [13]): 5 (Herbicidal ratio of 90% or more (almost completely withered))
CC(=O)CC1CC(O)=C(c2c(C)cc(Oc3ccc(C(F)(F)F)cn3)cc2C)C1=O (stereo not drawn) [7-019]	0 (Herbicidal ratio of 5% or lower (almost no effect))	2 (Herbicidal ratio of 20% or higher and lower than 40%)	0 (Herbicidal ratio of 5% or lower (almost no effect))	0 (Herbicidal ratio of 5% or lower (almost no effect))	0 (Herbicidal ratio of 5% or lower (almost no effect))	0 (Herbicidal ratio of 5% or lower (almost no effect))	0 (Herbicidal ratio of 5% or lower (almost no effect))	0 (Herbicidal ratio of 5% or lower (almost no effect))	0 (Herbicidal ratio of 5% or lower (almost no effect))	0 (Herbicidal ratio of 5% or lower (almost no effect))	0 (Herbicidal ratio of 5% or lower (almost no effect))	0 (Herbicidal ratio of 5% or lower (almost no effect))	0 (Herbicidal ratio of 5% or lower (almost no effect))	3 (Herbicidal ratio of 40% or higher and lower than 70%)	3 (Herbicidal ratio of 40% or higher and lower than 70%)	4 (Herbicidal ratio of 70% or higher and lower than 90%)	2 (Herbicidal ratio of 20% or higher and lower than 40%)	0 (Herbicidal ratio of 5% or lower (almost no effect))	0 (Herbicidal ratio of 5% or lower (almost no effect))	1 (Herbicidal ratio of 5% or higher and lower than 20%)	e: wheat, effect on crop (criteria of Test Example 1) (wheat [13]): 0 (Herbicidal ratio of 5% or lower (almost no effect))
